Laboratory results from patent US6737383B1, “Herbicidal oxadiazolidines” (priority 1999, dated 2004).

Legend:
bedstraw = assay: Test B pre/postemergence bedstraw; type: in vivo, Galium aparine; details: Postemergence
How it was run: (§1)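 Herbicidal effect was estimated by eye on a ten-point control scale after plants spent twelve to sixteen days in a greenhouse following soil or foliar treatment. Foliar sprays targeted plants at one to four leaves; all doses were formulated in a non-phytotoxic solvent with surfactant.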

blackgrass = assay: Test B pre/postemergence blackgrass; type: in vivo, Alopecurus myosuroides
How it was run: as §1

surinam grass = assay: Test B pre/postemergence surinam grass; type: in vivo, Brachiaria decumbens
How it was run: as §1

corn = assay: Test B pre/postemergence corn; type: in vivo, Zea mays
How it was run: as §1

crabgrass = assay: Test B pre/postemergence crabgrass; type: in vivo, Digitaria sanguinalis
How it was run: as §1

giant foxtail = assay: Test B pre/postemergence giant foxtail; type: in vivo, Setaria faberii
How it was run: as §1

morningglory = assay: Test B pre/postemergence morningglory; type: in vivo, Ipomoea hederacea
How it was run: as §1

rape = assay: Test B pre/postemergence rape; type: in vivo, Brassica napus
How it was run: as §1

soybean = assay: Test B pre/postemergence soybean; type: in vivo, Glycine max
How it was run: as §1

velvetleaf = assay: Test B pre/postemergence velvetleaf; type: in vivo, Abutilon theophrasti
How it was run: as §1

wheat = assay: Test B pre/postemergence wheat; type: in vivo, Triticum aestivum
How it was run: as §1

wild oat = assay: Test B pre/postemergence wild oat; type: in vivo, Avena fatua
How it was run: as §1

purple nutsedge = assay: Test B pre/postemergence purple nutsedge; type: in vivo, Cyperus rotundus
How it was run: as §1

rice = assay: Test B flood test rice; type: in vivo, Oryza sativa
How it was run: (§2)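 Flood test on plants grown to the 2-leaf stage; treated plants kept in greenhouse twelve to sixteen days, then visually rated against controls on a 0 (no effect) to 10 (complete control) scale.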

smallflower flatsedge = assay: Test B flood test smallflower flatsedge; type: in vivo, Cyperus difformis
How it was run: as §2

duck salad = assay: Test B flood test duck salad; type: in vivo, Heteranthera limosa
How it was run: as §2

[1] = Postemergence, Rate 125 g/ha, scale 0 to 10, 0 is no effect, 10 is complete control
[2] = Preemergence, Rate 62 g/ha, scale of 0 to 10 where 0 is no effect and 10 is complete control
[3] = Preemergence, Rate 250 g/ha, scale of 0 to 10 where 0 is no effect and 10 is complete control
[4] = Preemergence, Rate 500 g/ha, scale of 0 to 10 where 0 is no effect and 10 is complete control
[5] = Rate 62 g/ha, Postemergence, scale 0 to 10 (0 no effect, 10 complete control)
[6] = Rate 250 g/ha, Postemergence, scale of 0 to 10 where 0 is no effect and 10 is complete control
[7] = Rate 500 g/ha, Postemergence, scale 0 to 10, 0 no effect, 10 complete control
[8] = Rate 62 g/ha, headed Pre-emergence (flood test species), scale 0 to 10 (0 no effect, 10 complete control)
[9] = Rate 125 g/ha, Pre-emergence, flood test species, scale 0 to 10 where 0 is no effect and 10 is complete control
[10] = Rate 250 g/ha, Pre-emergence, flood-test species, scale 0 to 10, 0 is no effect, 10 is complete control
[11] = Rate 500 g/ha, Pre-emergence, flood test species, scale 0 to 10 (0 no effect, 10 complete control)

CC(C)N(C(=O)n1oc(=O)n(C2CC3CCC2C3)c1=O)c1ccc(F)cc1 (stereo not drawn) [Compound 327]
Plant response rating, Bedstraw (bedstraw; Rate 125 g/ha, scale 0 to 10, 0 is no effect, 10 is complete control): 7
Bedstraw plant response rating (bedstraw; Rate 62 g/ha, scale 0 to 10 (0 no effect, 10 complete control)): 7
Plant response rating, Bedstraw (bedstraw; Rate 250 g/ha, scale of 0 to 10 where 0 is no effect and 10 is complete control): 7
Plant response rating, Blackgrass (blackgrass; [1]): 0
Blackgrass plant response rating (blackgrass; [2]): 0
Blackgrass plant response rating (0 to 10 scale) (blackgrass; Preemergence, Rate 125 g/ha): 0
Blackgrass plant response rating (blackgrass; [3]): 4
Blackgrass plant response rating (blackgrass; [4]): 7
Blackgrass plant response rating (blackgrass; [5]): 0
Plant response rating, Blackgrass (blackgrass; [6]): 3
Plant response rating, Blackgrass (blackgrass; [7]): 7
Plant response rating, B. signalgrass (surinam grass; [1]): 0
B. signalgrass plant response rating (surinam grass; [2]): 0
B. signalgrass plant response rating (0 to 10 scale, 0 is no effect, 10 is complete control) (surinam grass; Preemergence, Rate 125 g/ha): 0
B. signalgrass plant response rating (surinam grass; [3]): 1
B. signalgrass plant response rating (surinam grass; [4]): 7
B. signalgrass plant response rating (surinam grass; [5]): 0
Plant response rating, B. signalgrass (surinam grass; [6]): 0
Plant response rating, B. signalgrass (surinam grass; [7]): 0
Plant response rating, Corn (corn; [1]): 0
Corn plant response rating (corn; [2]): 0
Corn plant response rating (0 to 10 scale) (corn; Preemergence, Rate 125 g/ha): 0
Corn plant response rating (corn; [3]): 0
Corn plant response rating (corn; [4]): 0
Corn plant response rating (corn; [5]): 0
Plant response rating, Corn (corn; [6]): 0
Plant response rating, Corn (corn; [7]): 0
Plant response rating, Crabgrass (crabgrass; [1]): 0
Crabgrass plant response rating (crabgrass; [2]): 0
Crabgrass plant response rating (0 to 10 scale) (crabgrass; Preemergence, Rate 125 g/ha): 2
Crabgrass plant response rating (crabgrass; [3]): 3
Crabgrass plant response rating (crabgrass; [4]): 5
Crabgrass plant response rating (crabgrass; [5]): 0
Plant response rating, Crabgrass (crabgrass; [6]): 0
Plant response rating, Crabgrass (crabgrass; [7]): 1
Plant response rating, Giant foxtail (giant foxtail; [1]): 0
Giant foxtail plant response rating (giant foxtail; [2]): 7
Giant foxtail plant response rating (0 to 10 scale) (giant foxtail; Preemergence, Rate 125 g/ha): 8
Giant foxtail plant response rating (giant foxtail; [3]): 9
Giant foxtail plant response rating (giant foxtail; [4]): 9
Giant foxtail plant response rating (giant foxtail; [5]): 0
Plant response rating, Giant foxtail (giant foxtail; [6]): 0
Plant response rating, Giant foxtail (giant foxtail; [7]): 0
Plant response rating, Morningglory (morningglory; [1]): 8
Morningglory plant response rating (morningglory; [2]): 0
Morningglory plant response rating (0 to 10 scale) (morningglory; Preemergence, Rate 125 g/ha): 0
Morningglory plant response rating (morningglory; [3]): 0
Morningglory plant response rating (morningglory; [4]): 0
Morningglory plant response rating (morningglory; [5]): 7
Plant response rating, Morningglory (morningglory; [6]): 8
Plant response rating, Morningglory (morningglory; [7]): 10
Plant response rating, Rape (rape; [1]): 0
Rape plant response rating (rape; [2]): 0
Rape plant response rating (0 to 10 scale) (rape; Preemergence, Rate 125 g/ha): 0
Rape plant response rating (rape; [3]): 0
Rape plant response rating (rape; [4]): 2
Rape plant response rating (rape; [5]): 0
Plant response rating, Rape (rape; [6]): 2
Plant response rating, Rape (rape; [7]): 2
Plant response rating, Soybean (soybean; [1]): 6
Soybean plant response rating (soybean; [2]): 0
Soybean plant response rating (0 to 10 scale) (soybean; Preemergence, Rate 125 g/ha): 0
Soybean plant response rating (soybean; [3]): 0
Soybean plant response rating (soybean; [4]): 0
Soybean plant response rating (soybean; [5]): 5
Plant response rating, Soybean (soybean; [6]): 6
Plant response rating, Soybean (soybean; [7]): 7
Plant response rating, Velvetleaf (velvetleaf; [1]): 0
Velvetleaf plant response rating (velvetleaf; [2]): 0
Velvetleaf plant response rating (0 to 10 scale) (velvetleaf; Preemergence, Rate 125 g/ha): 0
Velvetleaf plant response rating (velvetleaf; [3]): 0
Velvetleaf plant response rating (velvetleaf; [4]): 0
Velvetleaf plant response rating (velvetleaf; [5]): 0
Plant response rating, Velvetleaf (velvetleaf; [6]): 0
Plant response rating, Velvetleaf (velvetleaf; [7]): 0
Plant response rating, Wheat (wheat; [1]): 0
Wheat plant response rating (wheat; [2]): 0
Wheat plant response rating (wheat; [4]): 4
Wheat plant response rating (wheat; [5]): 0
Plant response rating, Wheat (wheat; [6]): 0
Plant response rating, Wheat (wheat; [7]): 1
Plant response rating, Wild oats (wild oat; [1]): 0
Wild oats plant response rating (wild oat; [2]): 0
Wild oats plant response rating (0 to 10 scale) (wild oat; Preemergence, Rate 125 g/ha): 0
Wild oats plant response rating (wild oat; [3]): 0
Wild oats plant response rating (wild oat; [4]): 4
Wild oats plant response rating (wild oat; [5]): 0
Plant response rating, Wild oats (wild oat; [6]): 0
Plant response rating, Wild oats (wild oat; [7]): 0
Plant response rating, Nutsedge (purple nutsedge; [1]): 0
Nutsedge plant response rating (0 to 10 scale) (purple nutsedge; Preemergence, Rate 125 g/ha): 0
Nutsedge plant response rating (purple nutsedge; [3]): 0
Nutsedge plant response rating (purple nutsedge; [4]): 0
Nutsedge plant response rating (purple nutsedge; [5]): 0
Plant response rating, Nutsedge (purple nutsedge; [6]): 0
Plant response rating, Nutsedge (purple nutsedge; [7]): 0
Rice plant response rating (rice; [8]): 0
Rice plant response rating (rice; [9]): 0
Rice plant response rating (rice; [10]): 0
Rice plant response rating (rice; [11]): 0
S. Flatsedge plant response rating (smallflower flatsedge; [8]): 0
S. Flatsedge plant response rating (smallflower flatsedge; [9]): 0
S. Flatsedge plant response rating (smallflower flatsedge; [10]): 0
S. Flatsedge plant response rating (smallflower flatsedge; [11]): 0
Ducksalad plant response rating (duck salad; [8]): 0
Ducksalad plant response rating (duck salad; [9]): 0
Ducksalad plant response rating (duck salad; [10]): 0
Ducksalad plant response rating (duck salad; [11]): 0
